According to publication PMC8416862 (Clinical Pharmacokinetics, 2021):

Experiments:
[1] = Trial 2: plasma pharmacokinetics of single-dose furosemide and rosuvastatin; format: in vivo, healthy male and female subjects; details: single dose co-administered with oral semaglutide versus alone
[2] = cited from earlier work
[3] = system: CYP enzymes; details: in vitro studies; cited from earlier work
[4] = system: drug transporters; details: in vitro studies; cited from earlier work
[5] = co-administered with once-weekly subcutaneous semaglutide; cited from earlier work

NS(=O)(=O)c1cc(C(=O)O)c(NCc2ccco2)cc1Cl [Furosemide, furosemide]
decrease in the maximum concentration [1]: 34%

CC(C)c1nc(N(C)S(C)(=O)=O)nc(-c2ccc(F)cc2)c1/C=C/[C@@H](O)C[C@@H](O)CC(=O)O [Rosuvastatin, rosuvastatin]
increase in maximum concentration [1]: 10%
increase in total exposure [1]: 41%
bioavailability, orally administered ([2]; oral administration): approximately 20%

CC[C@H](C)[C@H](NC(=O)[C@H](Cc1ccccc1)NC(=O)[C@H](CCC(=O)O)NC(=O)[C@H](CCCCNC(=O)COCCOCCNC(=O)COCCOCCNC(=O)CC[C@H](NC(=O)CCCCCCCCCCCCCCCCC(=O)O)C(=O)O)NC(=O)[C@H](C)NC(=O)[C@H](C)NC(=O)[C@H](CCC(N)=O)NC(=O)CNC(=O)[C@H](CCC(=O)O)NC(=O)[C@H](CC(C)C)NC(=O)[C@H](Cc1ccc(O)cc1)NC(=O)[C@H](CO)NC(=O)[C@H](CO)NC(=O)[C@@H](NC(=O)[C@H](CC(=O)O)NC(=O)[C@H](CO)NC(=O)[C@@H](NC(=O)[C@H](Cc1ccccc1)NC(=O)[C@@H](NC(=O)CNC(=O)[C@H](CCC(=O)O)NC(=O)C(C)(C)NC(=O)[C@@H](N)Cc1cnc[nH]1)[C@@H](C)O)[C@@H](C)O)C(C)C)C(=O)N[C@@H](C)C(=O)N[C@@H](Cc1c[nH]c2ccccc12)C(=O)N[C@@H](CC(C)C)C(=O)N[C@H](C(=O)N[C@@H](CCCNC(=N)N)C(=O)NCC(=O)N[C@@H](CCCNC(=N)N)C(=O)NCC(=O)O)C(C)C [Semaglutide, semaglutide]
potential to inhibit or induce CYP enzymes [3]: very low potential
potential to inhibit drug transporters [4]: very low potential
elimination of intact semaglutide in urine ([2]; absorption, metabolism and excretion trial with subcutaneous semaglutide): 3%

C#C[C@]1(O)CC[C@H]2[C@@H]3CCC4=CC(=O)CC[C@@H]4[C@H]3CC[C@@]21CC [levonorgestrel]
increase in AUC [5]: 20%
